Data reported in patent US20250270227A1, “CAMPTOTHECIN DERIVATIVE, AND PHARMACEUTICAL COMPOSITION AND USE THEREOF” (SIMCERE ZAIMING PHARMACEUTICAL CO., LTD., priority 2021, published 2025).
Like-named read-outs stand apart in the source and are kept apart here.

What was measured:
Assay type in all cases: cell-based
[1] = tested on: Human ovarian cancer cell line SK-OV-3; assay: Test 2 of anti-proliferative activity against tumor cells (Cell-Titer Glo)
Description: (§1) Cell culture: SK-OV-3 cells were cultured in McCoy's 5a medium containing 10% fetal bovine serum+1% penicillin-streptomycin, PA-1 cells were cultured in MEM medium containing 10% fetal bovine serum+1% MEM NEAA+1% sodium pyruvate+1% penicillin-streptomycin, NCI-H82 cells and MDA-MB-231 cells were cultured in 1640 medium containing 10% fetal bovine serum+1% penicillin-streptomycin, A549 cells were cultured in DMEM medium containing 10% fetal bovine serum+1% penicillin-streptomycin, all under conditions of 37° C. and 5% CO2. Cells in logarithmic growth phase were suitable for the experiment.
(§2) Detection of cell proliferation activity: The inhibitory activity of the compounds on the proliferation of the five cell lines SK-OV-3, PA-1, NCI-H82, MDA-MB-231 and A549 was detected using Cell-Titer Glo reagent. SK-OV-3 cell (1000 cells per well), PA-1 cells (800 cells per well), NCI-H82 cells (5000 cells per well), MDA-MB-231 cells (3000 cells per well) and A549 cells (400 cells per well) were seeded in 96-well plates and cultured at 37° C. and 5% CO2 for 24 h. The compound to be tested was dissolved in DMSO to a concentration of 1 mM, then subjected to gradient dilution with DMSO and corresponding medium, and transferred to 96-well cell plates to a final concentration of 300 nM (initial concentration), with 3-fold dilution and a total of 9 concentration points. The cells were cultured at 37° C. and 5% CO2 for additional 5 days. The cell viability was detected by adding Cell-Titer Glo reagent.
(§3) Additionally, a negative control group and a positive control group were provided as Bottom and Top, respectively. In the negative control group, the cells were not added, only the same volume of medium was added, and other operations were consistent with those in the experimental group; in the positive control group, the test compound was not added, only the same volume of DMSO was added, and other operations were consistent with those in the experimental group.
(§4) Data analysis: The % compound inhibition was calculated, and fitting was performed to obtain IC50 of the compound.
(§5) % Compound inhibition=1−100%*(Signal−Bottom)/(Top−Bottom).
(§6) Signal represents the signal value of the experimental group, Bottom represents the average signal value of the negative control group, and Top represents the average signal value of the positive control group.

[2] = tested on: human ovarian cancer cell line PA-1; assay: as above
Description: as §1, §2, §3, §4, §5, §6

[3] = tested on: human non-small cell lung cancer cell line A549; assay: as above
Description: as §1, §2, §3, §4, §5, §6

[4] = tested on: human breast cancer cell line MDA-MB-231; assay: as above; details: Homo sapiens, MDA-MB-231, 120 h
Description: as §1, §2, §3, §4, §5, §6

[5] = biological target: hERG potassium ion channel (Homo sapiens (Human), UniProt Q12809); assay: hERG inhibitory activity (automated patch clamp, CHO cell line stably expressing hERG)
Description: The inhibition of hERG activity by the compounds of the present disclosure was determined by the following experimental method.
A CHO cell line stably expressing hERG ion channel was purchased from B′SYS GmbH (Switzerland). The cells were cultured in F-12 (HAM) medium containing 10% FBS buffer, 100 U/mL penicillin-streptomycin, 100 μg/mL hygromycin and 100 μg/mL G418. Trypsin substitute TrypLE™ Express was used for digestion and passage, passaging three times per week and maintaining about 80% confluence.
Iii. Preparation of Intracellular/Extracellular Fluid and Preparation of Solution of Compound to be Tested
• 1) NMDG 60 standard extracellular fluid: 80 mM sodium chloride, 60 mM NMDG, 4 mM potassium chloride, 2 mM calcium chloride, 1 mM magnesium chloride, 5 mM polyglucose, 10 mM HEPES, pH adjusted to 7.4 with HCl, osmotic pressure 289 mOsm/kg; • 2) NMDG 60 cell sealing solution: 80 mM sodium chloride, 60 mM NMDG, 4 mM potassium chloride, 10 mM calcium chloride, 1 mM magnesium chloride, 5 mM polyglucose, 10 mM HEPES, pH adjusted to 7.4 with HCl, osmotic pressure 313 mOsm/kg; • 3) Chip filling solution: 140 mM sodium chloride, 4 mM potassium chloride, 5 mM polyglucose, 10 mM HEPES, pH adjusted to 7.4 with NaOH, osmotic pressure 289 mOsm/kg; • 4) Standard extracellular fluid: 140 mM sodium chloride, 4 mM potassium chloride, 2 mM calcium chloride, 1 mM magnesium chloride, 5 mM polyglucose, 10 mM HEPES, pH adjusted to 7.4 with NaOH, osmotic pressure 298 mOsm/kg.
KF110 intracellular fluid: 10 mM EGTA, 10 mM HEPES, 10 mM potassium chloride, 10 mM sodium chloride, 110 mM potassium fluoride, pH adjusted to 7.2 with KOH, osmotic pressure greater than 280 mOsm/kg.
• 1) The compound to be tested was dissolved in DMSO and prepared into a stock solution with a final concentration of 10 mM. • 2) The stock solution was subjected to gradient dilution with DMSO as a solvent at a ratio of 1:3 into solutions with other three intermediate concentrations (mM): 3.33, 1.11 and 0.37, respectively. • 3) Before the start of the experiment, the gradient solution of the compound to be tested was diluted again with the extracellular fluid according to a ratio of 1:500 into a series of working solutions with final concentrations of: 20, 6.66, 2.22 and 0.74 (μM), respectively, while the 60 μM working solution was diluted from 10 mM stock solution according to a ratio of 3:500. […]

[6] = Homo sapiens, SK-OV-3, 120 h, SK-OV-3 cells, 5 days, Cell-Titer Glo, read-out: SK-OV-3 Anti-proliferative activity IC50
[7] = Homo sapiens, PA-1, 120 h, read-out: PA-1 Anti-proliferative activity IC50 (nM), PA-1 cells, 5 days, Cell-Titer Glo
[8] = Homo sapiens, A549, 120 h, read-out: A549 Anti-proliferative activity IC50 (nM), A549 cells, 5 days, Cell-Titer Glo
[9] = read-out: MDA-MB-231 Anti-proliferative activity IC50 (nM)
[10] = MDA-MB-231 cells, 5 days, Cell-Titer Glo, read-out: MDA-MB-231 Anti-proliferative activity IC50
[11] = Homo sapiens, PA-1, 120 h, PA-1 cells, 5 days, Cell-Titer Glo, read-out: PA-1 Anti-proliferative activity IC50
[12] = Homo sapiens, SK-OV-3, 120 h, read-out: SK-OV-3 Anti-proliferative activity IC50 (nM)

Chain of hERG potassium ion channel (Q12809 whole entry): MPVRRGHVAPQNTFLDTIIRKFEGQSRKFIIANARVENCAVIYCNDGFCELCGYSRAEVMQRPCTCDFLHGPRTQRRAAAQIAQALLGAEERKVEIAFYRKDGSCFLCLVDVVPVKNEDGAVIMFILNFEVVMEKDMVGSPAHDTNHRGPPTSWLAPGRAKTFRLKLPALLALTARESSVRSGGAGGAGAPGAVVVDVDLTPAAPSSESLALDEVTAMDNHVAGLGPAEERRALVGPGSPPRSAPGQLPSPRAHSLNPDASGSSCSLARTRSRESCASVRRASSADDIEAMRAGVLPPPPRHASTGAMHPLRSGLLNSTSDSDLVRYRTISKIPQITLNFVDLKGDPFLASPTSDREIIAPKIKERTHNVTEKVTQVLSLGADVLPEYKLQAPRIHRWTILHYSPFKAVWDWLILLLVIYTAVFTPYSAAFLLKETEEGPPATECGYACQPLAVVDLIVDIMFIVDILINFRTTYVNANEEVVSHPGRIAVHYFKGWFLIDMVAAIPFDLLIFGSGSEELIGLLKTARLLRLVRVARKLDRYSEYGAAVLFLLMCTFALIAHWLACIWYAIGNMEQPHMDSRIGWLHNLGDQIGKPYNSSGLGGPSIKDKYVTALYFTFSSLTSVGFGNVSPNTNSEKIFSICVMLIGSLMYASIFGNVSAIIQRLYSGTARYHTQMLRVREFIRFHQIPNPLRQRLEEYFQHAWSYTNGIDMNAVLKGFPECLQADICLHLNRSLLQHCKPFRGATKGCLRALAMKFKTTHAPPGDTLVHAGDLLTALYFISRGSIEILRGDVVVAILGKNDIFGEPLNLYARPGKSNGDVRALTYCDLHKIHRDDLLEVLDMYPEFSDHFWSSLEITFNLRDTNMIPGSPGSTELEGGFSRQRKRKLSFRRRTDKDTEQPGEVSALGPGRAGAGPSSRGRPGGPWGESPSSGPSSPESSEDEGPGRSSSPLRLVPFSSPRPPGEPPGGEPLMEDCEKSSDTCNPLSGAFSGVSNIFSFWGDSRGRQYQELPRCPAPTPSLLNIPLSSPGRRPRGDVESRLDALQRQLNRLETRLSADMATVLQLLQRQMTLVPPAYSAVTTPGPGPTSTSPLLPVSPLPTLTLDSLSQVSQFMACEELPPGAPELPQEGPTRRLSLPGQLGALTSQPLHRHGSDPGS

CC[C@@]1(O)C(=O)OCc2c1cc1n(c2=O)Cc2c-1nc1cc3c(cc1c2CNC(=O)C(O)C1CC1)OCO3 (single isomer, unassigned) [Compound 14-P1]
IC50 [1, 6]: 2.2 nM | IC50 [2, 7]: 0.7 nM | IC50 [3, 8]: 10.2 nM | IC50 [4, 9]: 7.5 nM | IC50 [5]: > 30000 nM

CC[C@@]1(O)C(=O)OCc2c1cc1n(c2=O)Cc2c-1nc1cc3c(cc1c2CNC(=O)C(O)C1CC1)OCO3 (single isomer, unassigned) [Compound 14-P2]
IC50 ([1]; SK-OV-3 cells, 5 days, Cell-Titer Glo, read-out: SK-OV-3 Anti-proliferative activity IC50): 3.2 nM | IC50 ([2]; read-out: PA-1 Anti-proliferative activity IC50, PA-1 cells, 5 days, Cell-Titer Glo): 0.9 nM | IC50 ([3]; read-out: A549 Anti-proliferative activity IC50, A549 cells, 5 days, Cell-Titer Glo): 14.3 nM | IC50 [4, 10]: 8.8 nM | IC50 ([5]; read-out: hERG potassium ion channel inhibitory activity IC50, CHO-hERG, SyncroPatch 384i, 0.37-30 μM): > 30000 nM

CC[C@@]1(O)C(=O)OCc2c1cc1n(c2=O)Cc2c-1nc1cc3c(c(F)c1c2CNC(=O)[C@@H](O)C1CC1)OCO3 (single isomer, unassigned) [Compound 37-P1]
IC50 [1, 6]: 2.1 nM | IC50 [2, 11]: 0.9 nM | IC50 ([3]; Homo sapiens, A549, 120 h, A549 cells, 5 days, Cell-Titer Glo, read-out: A549 Anti-proliferative activity IC50): 9.1 nM | IC50 [4, 10]: 13.2 nM | IC50 [5]: > 30000 nM

CC[C@@]1(O)C(=O)OCc2c1cc1n(c2=O)Cc2c-1nc1cc3c(cc1c2CNC(=O)C(O)C1CC1)OCO3 (stereo partly drawn) [Compound 14, 2-cyclopropyl-N-(((S)-7-ethyl-7-hydroxy-8,11-dioxo-7,8,11,13-tetrahydro-10H-[1,3]dioxolo[4,5-g]pyrano[3′,4′:6,7]indolizino[1,2-b]quinolin-14-yl)methyl)-2-hydroxyacetamide]
IC50 [1, 12]: 3 nM | IC50 [2, 11]: 1 nM | IC50 [3, 8]: 9.7 nM | IC50 [4, 10]: 10.4 nM

[2H]C1([2H])Oc2cc3nc4c(c(CNC(=O)C(O)C5CC5)c3cc2O1)Cn1c-4cc2c(c1=O)COC(=O)[C@]2(O)CC (stereo partly drawn) [Compound 39, 2-cyclopropyl-N-(((S)-7-ethyl-7-hydroxy-8,11-dioxo-7,8,11,13-tetrahydro-10H-[1,3]dioxolo[4,5-g]pyrano[3′,4′:6,7]indolizino[1,2-b]quinolin-14-yl-2,2-d2)methyl)-2-hydroxyacetamide]
IC50 [1, 12]: 2.6 nM | IC50 [2, 7]: 1.5 nM | IC50 [3, 8]: 19.1 nM | IC50 [4, 9]: 26.4 nM | IC50 [5]: > 30000 nM
